The text below walks through data of patent US20050245497A1, “Treatment of ophthalmic conditions” (priority 2004, published 2005).

Experiment [1] concerns bacterial endotoxin induced exudative response. In words: Bacterial endotoxin induced exudative response in rabbits, anterior chamber fluorophotometry of FITC-dextran. It is filed as in vivo, New Zealand albino rabbits. The conditions noted are these: topical 4 mg/ml; for Anterior Chamber Fluorophotometer Results, Mean: Mean of 5 rabbits; for Anterior Chamber Fluorophotometer Results, Mean / Anterior Chamber Fluorophotometer Results: treated right eye, FITC-dextran fluorescence 90 minutes after endotoxin; for Anterior Chamber Fluorophotometer Results: 50 μL drop at 0, 1, 2 and 3 hours; for exudative response (result in words) / reduction in the exudative response: treated eye versus saline control eye; for exudative response (result in words): n=5; for reduction in the exudative response: n=5, p<0.03 (Wilcoxon signed rank test). Here is the method:
Thirty New Zealand albino rabbits weighing between 2.5 and 3.0 kg were used for this study. The rabbits were treated in accordance with the guidelines of the Association for Research in Vision and Ophthalmology (ARVO). One eye of each animal was used for experimental purposes, the other serving as a control eye. Slit lamp and indirect funduscopic examination was performed on all eyes before and after euthanasia.
The rabbits were divided into six groups. Group 1 (n=5) received topical 4 mg/ml deoxycortisone acetate (Spectrum Chemical Corp). Group 2 (n=5) received topical 4 mg/ml 11 -deoxycorticosterone (Spectrum Chemical Corp). Group 3 (n=5) received topical 4 mg/ml 11-desoxycortisone (Spectrum Chemical Corp). Group 4 (n=5) received topical 4 mg/ml aldosterone (Farmabios, Italy). Group 5 (n=5) received topical 4 mg/ml deoxycorticosterone (Spectrum Chemical Corp). Group 6 (n=5) received topical fludrocortisone acetate (Farmabios, Italy).
The rabbits were anaesthetised with 1 ml of a mixture of ketamine hydrochloride (35 mg/kg, intramuscular) and xylazine hydrochloride (5 mg/kg, intramuscular). In all groups, drugs were applied topically to the right eye and saline was applied to the left eye four times (at time 0, 1, 2 and 3 hours). Drugs and saline were administered to the eye as a single 50 μL drop.
20 mg/ml dextran-isothiocyanate-fluorescein (FITC-dextran, Sigma) was prepared and a 20 mg/kg dose was injected into the marginal ear vein at time […].
Endotoxin (2.5 μg/kg) isolated from Salmonella typhimurium (Sigma) was injected into the same vein at the same time with the third drop occurring at time 2 hours.
The FITC-dextran concentration in the anterior chamber was determined using a prototype fluorophotometer (OcuMetrics, Mountain View, Calif.) 90 minutes after an endotoxin administration. This instrument has excitation wavelengths of approximately 410 to 490 nm, with emission wavelengths of approximately 520 to 630 nm. The fluorescence emitted by the FITC-dextran was determined in both left and right eyes.
Statistical analysis was performed, comparing the anterior chamber fluorescence measurements of the test and control eye of each animal. A paired Wilcoxon Signed Rank Test (StatXact) was used, with a one sided p-value.

A further experiment deals with VEGF receptor Flk-1. In words: FACS analysis of Flk-1 expression in choroidal endothelial cells. The experiment is classed as cell-based. The conditions noted are these: Example 1, FIG. 1; choroidal endothelial cells treated with PMA, compared to control cells. Here is the method: (§1) To show the capacity of a mineralocorticoid, specifically fludrocortisone, to down-regulate receptors involved in biochemical pathways associated with oedema and exudative retinopathies, an assay was conducted looking at the activity of VEGF receptors Flk-1 and Flt-1 in choroidal endothelial cells. Flk-1 is known to be involved in cell proliferation whilst Flt-1 is involved in cell permeability.
(§2) The expression of Flk-1 and Flt-1 was measured, using fluorescence activated cell sorting (FACS) analysis, in untreated cells, cells treated with phorbolmyristate acetate (PMA), cells treated with PMA and then with the glucocorticoid triamcinolone acetonide (TA) and cells treated with PMA and then with the mineralocorticoid fludrocortisone. PMA is a model for pro-inflammatory cytokines and TA is known to […] the glucocorticoid receptor
(§3) The expression of Flk-1 and Flt-1 was also investigated in untreated choroidal endothelial cells, choroidal endothelial cells treated with Tumour Necrosis Factor-α (TNF-α) and choroidal endothelial cells treated with the mineralocorticoid fludrocortisone. TNF-α is a pro-inflammatory cytokine.
On the technique in general: A flow cytometer gives signals particle by particle.

The next experiment concerns VEGF receptor Flt-1. In words: FACS analysis of Flt-1 expression in choroidal endothelial cells. It is filed as cell-based. As for the experimental part:
as §1, §2, §3

In the case of `C[C@]12CCC(=O)C=C1CC[C@@H]1[C@@H]2[C@@H](O)C[C@]2(C=O)[C@@H](C(=O)CO)CC[C@@H]12` [AS, 11β-11,21-dihydroxy-3,20-dioxopregen-4-en-18-al], the “Anterior Chamber Fluorophotometer Results, Mean” value in experiment [1] stood at 248. The “Anterior Chamber Fluorophotometer Results” value is listed as 243 in experiment [1] (Rabbit 1); 75 in experiment [1] (Rabbit 2); 125 in experiment [1] (Rabbit 3); 540 in experiment [1] (Rabbit 4); 256 in experiment [1] (Rabbit 5). Further, in experiment [1], the “exudative response (result in words)” value was “very variable”.
Regarding `CC(=O)OCC(=O)[C@@]1(O)CC[C@H]2[C@@H]3CCC4=CC(=O)CC[C@]4(C)[C@@]3(F)[C@@H](O)C[C@@]21C` [FA, fludrocortisone acetate], in experiment [1], the “Anterior Chamber Fluorophotometer Results, Mean” value amounted to 166. For the same compound, the “Anterior Chamber Fluorophotometer Results” value in experiment [1] (Rabbit 1) is reported as 27; in experiment [1] (Rabbit 2), 86; in experiment [1] (Rabbit 3), 261; in experiment [1] (Rabbit 4) it was 445; in experiment [1] (Rabbit 5), 10. The “reduction in the exudative response” value in experiment [1] is 34%.
As to `C[C@]12CC[C@H]3[C@@H](CCC4=CC(=O)CC[C@@]43C)[C@@H]1CC[C@@H]2C(=O)CO` [11 -deoxycorticosterone], the “exudative response (result in words)” value in experiment [1] is on record as “did not show a reduction in the exudative response”.
Turning to `CCCCCCCCCCCCCC(=O)O[C@@H]1[C@@H](C)[C@@]2(O)[C@@H](C=C(CO)C[C@]3(O)C(=O)C(C)=C[C@@H]23)[C@@H]2C(C)(C)[C@]12OC(C)=O` [PMA, phorbolmyristate acetate], the “expression of Flk-1” value in the experiment with VEGF receptor Flk-1 was “increased”. Besides, in the experiment on VEGF receptor Flt-1 (Example 1, FIG. 1, choroidal endothelial cells treated with PMA), the “expression of Flt-1” value was “increased”.
Consider TNF-α, for which, in the experiment with VEGF receptor Flt-1 (Example 2, FIG. 2, choroidal endothelial cells, compared to untreated control cells), the “expression of Flt-1” value was “higher levels of Flt-1”.
`C[C@]12CCC(=O)C=C1CC[C@@H]1[C@@H]2CC[C@@]2(C)[C@H]1CC[C@]2(O)C(=O)CO` [11-DC, 17α,21-dihydroxypregn-4-ene-3,20-dione]: the “Anterior Chamber Fluorophotometer Results, Mean” value in experiment [1] is 331. In addition, the “Anterior Chamber Fluorophotometer Results” value stood at 696 in experiment [1] (Rabbit 1); 578 in experiment [1] (Rabbit 2); 141 in experiment [1] (Rabbit 3); 147 in experiment [1] (Rabbit 4); 92 in experiment [1] (Rabbit 5). Also, the “reduction in the exudative response” value in experiment [1] is on record as 37%.
In the case of `C[C@]12CC[C@H]3[C@@H](CCC4=CC(=O)CC[C@@]43C)[C@@H]1CC[C@@H]2C(=O)CO` [DS, 21-hydroxypregn-4-ene-3,20-dione], in experiment [1], the “Anterior Chamber Fluorophotometer Results, Mean” value came to 174. Also, the “Anterior Chamber Fluorophotometer Results” value is 340 in experiment [1] (Rabbit 1); 245 in experiment [1] (Rabbit 2); 59 in experiment [1] (Rabbit 3); 86 in experiment [1] (Rabbit 4); 140 in experiment [1] (Rabbit 5). The “reduction in the exudative response” value in experiment [1] is 37%.
In the case of `CC(=O)OCC(=O)[C@H]1CC[C@H]2[C@@H]3CCC4=CC(=O)CC[C@]4(C)[C@H]3CC[C@]12C` [DA, 21-hydroxypregn-4-ene-3,20-dione 21 acetate], in experiment [1], the “Anterior Chamber Fluorophotometer Results, Mean” value is given as 201. Moreover, the “Anterior Chamber Fluorophotometer Results” value in experiment [1] (Rabbit 1) came out at 220; in experiment [1] (Rabbit 2), 116; in experiment [1] (Rabbit 3), 455; in experiment [1] (Rabbit 4), 100; in experiment [1] (Rabbit 5), 113. Besides, the “reduction in the exudative response” value in experiment [1] is 47%.
